Laboratory results: patent US20250236616A1, “IMMUNOMODULATING AZALIDES” (Zoetis Services LLC, priority 2021, published 2025)

How the values were obtained:
Type in all cases: cell-based
[1] = test system: TNF-α; assay: Whole bovine blood assay, LPS-induced TNF-α; conditions: fresh whole bovine blood, LPS stimulant; top drug concentration 250 μM
Summary of the method: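 Fresh heparinized bovine whole blood was preincubated with compound 4 h at 37 °C, then stimulated with LPS (final 1 μg/mL) for 18 h at 37 °C. Plasma TNF-α was quantified by MSD U-Plex chemiluminescent immunoassay, normalized to total protein (BCA), and IC50 taken for LPS-induced TNF-α inhibition.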

[2] = test system: IL-1β; assay: Whole bovine blood assay, LPS-induced IL-1β (inhibition / overstimulation); conditions: drug concentration giving overstimulation (OS) of LPS-induced IL-1β, top concentration 250 μM
Summary of the method: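 IL-1β was quantified by MSD U-Plex chemiluminescence in plasma and normalized to BCA total protein. Bovine blood was pretreated 4 h at 37 °C with compound dilutions before 18 h LPS challenge (1 μg/mL final). Rising IL-1β at high concentrations was recorded as overstimulation.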

[3] = test system: IL-6; assay: Whole bovine blood assay, LPS-induced IL-6; conditions: fresh whole bovine blood, LPS stimulant; top drug concentration 250 μM

SMILES	IC50 [1]	IC50 [3]	minimal effective concentration [2]
CCCNC[C@]1(O)[C@H](C)O[C@@H](O[C@H]2[C@H](C)[C@@H](O[C@@H]3O[C@H](C)C[C@H](N(C)S(=O)(=O)c4nccn4C)[C@H]3Oc3ccccn3)[C@](C)(O)C[C@@H](C)CN[C@H](C)[C@@H](O)[C@](C)(O)[C@@H](CC)OC(=O)[C@@H]2C)C[C@@]1(C)OC [Example B-131]	28 µM	17 µM	6 µM
CCCNC[C@]1(O)[C@H](C)O[C@@H](O[C@H]2[C@H](C)[C@@H](O[C@@H]3O[C@H](C)C[C@H](N(C)S(=O)(=O)N4Cc5ccccc5C4)[C@H]3O)[C@](C)(O)C[C@@H](C)CN[C@H](C)[C@@H](O)[C@](C)(O)[C@@H](CC)OC(=O)[C@@H]2C)C[C@@]1(C)OC [Example B-45]	16 µM	8 µM	3 µM
CC[C@H]1OC(=O)[C@H](C)[C@@H](O[C@H]2C[C@@](C)(OC)[C@](O)(CN3CCS(=O)(=O)CC3)[C@H](C)O2)[C@H](C)[C@@H](O[C@@H]2O[C@H](C)C[C@H](N(C)S(=O)(=O)Nc3ccc(C(F)(F)F)cc3)[C@H]2O)[C@](C)(O)C[C@@H](C)CN[C@H](C)[C@@H](O)[C@]1(C)O [Example C-13]	> 250 µM	> 250 µM	6 µM
CC[C@H]1OC(=O)[C@H](C)[C@@H](O[C@H]2C[C@@](C)(OC)[C@](O)(CNCCCNC(C)=O)[C@H](C)O2)[C@H](C)[C@@H](O[C@@H]2O[C@H](C)C[C@H](N(C)S(=O)(=O)Nc3ccc(C(F)(F)F)cc3)[C@H]2O)[C@](C)(O)C[C@@H](C)CN[C@H](C)[C@@H](O)[C@]1(C)O [Example B-88]	22 µM	40 µM	14 µM
CC[C@H]1OC(=O)[C@H](C)[C@@H](O)[C@H](C)[C@@H](O[C@@H]2O[C@H](C)C[C@H](N(C)S(=O)(=O)c3cccs3)[C@H]2Oc2ccc(F)cc2)[C@](C)(O)C[C@@H](C)CN[C@H](C)[C@@H](O)[C@]1(C)O [Example A-22]	30 µM	22 µM	16 µM
CC[C@H]1OC(=O)[C@H](C)[C@@H](O)[C@H](C)[C@@H](O[C@@H]2O[C@H](C)C[C@H](N(C)S(=O)(=O)c3cnc4n3CCC4)[C@H]2Oc2ccc(F)cc2)[C@](C)(O)C[C@@H](C)CN[C@H](C)[C@@H](O)[C@]1(C)O [Example A-28]	> 250 µM	120 µM	81 µM
CC[C@H]1OC(=O)[C@H](C)[C@@H](O[C@H]2C[C@@](C)(OC)[C@](O)(CN3CCCCC3)[C@H](C)O2)[C@H](C)[C@@H](O[C@@H]2O[C@H](C)C[C@H](N(C)S(=O)(=O)N(CC)CC)[C@H]2O)[C@](C)(O)C[C@@H](C)CN[C@H](C)[C@@H](O)[C@]1(C)O [Example C-35]	33 µM	23 µM	11 µM
CC[C@H]1OC(=O)[C@H](C)[C@@H](O[C@H]2C[C@@](C)(OC)[C@](O)(CN3CCN(C(C)C)CC3)[C@H](C)O2)[C@H](C)[C@@H](O[C@@H]2O[C@H](C)C[C@H](N(C)S(=O)(=O)Nc3ccc(C(F)(F)F)cc3)[C@H]2O)[C@](C)(O)C[C@@H](C)CN[C@H](C)[C@@H](O)[C@]1(C)O [Example C-14]	> 250 µM	> 250 µM	>250 µM
CCCNC[C@]1(O)[C@H](C)O[C@@H](O[C@H]2[C@H](C)[C@@H](O[C@@H]3O[C@H](C)C[C@H](N(C)S(=O)(=O)N(C)CC(F)(F)F)[C@H]3O)[C@](C)(O)C[C@@H](C)CN[C@H](C)[C@@H](O)[C@](C)(O)[C@@H](CC)OC(=O)[C@@H]2C)C[C@@]1(C)OC [Example B-112]	39 µM	45 µM	40 µM
CCCNC[C@]1(O)[C@H](C)O[C@@H](O[C@H]2[C@H](C)[C@@H](O[C@@H]3O[C@H](C)C[C@H](N(C)S(=O)(=O)NC4CCCCC4)[C@H]3O)[C@](C)(O)C[C@@H](C)CN[C@H](C)[C@@H](O)[C@](C)(O)[C@@H](CC)OC(=O)[C@@H]2C)C[C@@]1(C)OC [Example B-56]	86 µM	26 µM	16 µM
CCCNC[C@]1(O)[C@H](C)O[C@@H](O[C@H]2[C@H](C)[C@@H](O[C@@H]3O[C@H](C)C[C@H](N(C)S(=O)(=O)N(C)C)[C@H]3O)[C@](C)(O)C[C@@H](C)CN[C@H](C)[C@@H](O)[C@](C)(O)[C@@H](CC)OC(=O)[C@@H]2C)C[C@@]1(C)OC [Example B-51]	38 µM	62 µM	97 µM
CC[C@H]1OC(=O)[C@H](C)[C@@H](O[C@H]2C[C@@](C)(OC)[C@](O)(CNCCCF)[C@H](C)O2)[C@H](C)[C@@H](O[C@@H]2O[C@H](C)C[C@H](N(C)S(=O)(=O)Nc3ccc(C(F)(F)F)cc3)[C@H]2O)[C@](C)(O)C[C@@H](C)CN[C@H](C)[C@@H](O)[C@]1(C)O [Example B-91]	34 µM	101 µM	2 µM

These reach a lower IC50 [1]. Values come first.

IC50 [1]	IC50 [3]	SMILES	minimal effective concentration [2]
8 µM	6 µM	CCCNC[C@]1(O)[C@H](C)O[C@@H](O[C@H]2[C@H](C)[C@@H](O[C@@H]3O[C@H](C)C[C@H](N(Cc4ccccc4)S(=O)(=O)c4ccccc4)[C@H]3O)[C@](C)(O)C[C@@H](C)CN[C@H](C)[C@@H](O)[C@](C)(O)[C@@H](CC)OC(=O)[C@@H]2C)C[C@@]1(C)OC [Example B-145]	2 µM
6 µM	32 µM	CC[C@H]1OC(=O)[C@H](C)[C@@H](O[C@H]2C[C@@](C)(OC)[C@](O)(CN3CCSCC3)[C@H](C)O2)[C@H](C)[C@@H](O[C@@H]2O[C@H](C)C[C@H](N(C)S(=O)(=O)c3ccc(Cl)cc3)[C@H]2O)[C@](C)(O)C[C@@H](C)CN[C@H](C)[C@@H](O)[C@]1(C)O [Example C-6]	16 µM
4 µM	4 µM	CC[C@H]1OC(=O)[C@H](C)[C@@H](O[C@H]2C[C@@](C)(OC)[C@](O)(CN3CCCCC3)[C@H](C)O2)[C@H](C)[C@@H](O[C@@H]2O[C@H](C)C[C@H](N(CC(C)C)S(=O)(=O)Nc3ccc(C(F)(F)F)cc3)[C@H]2O)[C@](C)(O)C[C@@H](C)CN[C@H](C)[C@@H](O)[C@]1(C)O [Example C-44]	6 µM
8 µM	9 µM	CCCNC[C@]1(O)[C@H](C)O[C@@H](O[C@H]2[C@H](C)[C@@H](O[C@@H]3O[C@H](C)C[C@H](N(C)S(=O)(=O)c4nccn4C)[C@H]3Oc3ccc(Cl)cc3)[C@](C)(O)C[C@@H](C)CN[C@H](C)[C@@H](O)[C@](C)(O)[C@@H](CC)OC(=O)[C@@H]2C)C[C@@]1(C)OC [Example B-136]	6 µM
6 µM	9 µM	CC[C@H]1OC(=O)[C@H](C)[C@@H](O[C@H]2C[C@@](C)(OC)[C@](O)(CN3CCCCC3)[C@H](C)O2)[C@H](C)[C@@H](O[C@@H]2O[C@H](C)C[C@H](N(C)S(=O)(=O)c3ccccc3)[C@H]2Oc2ccnc(F)c2)[C@](C)(O)C[C@@H](C)CN[C@H](C)[C@@H](O)[C@]1(C)O [Example C-55]	6 µM
5 µM	9 µM	CC[C@H]1OC(=O)[C@H](C)[C@@H](O[C@H]2C[C@@](C)(OC)[C@](O)(CN3CCCC3)[C@H](C)O2)[C@H](C)[C@@H](O[C@@H]2O[C@H](C)C[C@H](N(C)S(=O)(=O)c3ccc(Cl)cc3)[C@H]2O)[C@](C)(O)C[C@@H](C)CN[C@H](C)[C@@H](O)[C@]1(C)O [Example C-3]	16 µM
6 µM	9 µM	CC[C@H]1OC(=O)[C@H](C)[C@@H](O[C@H]2C[C@@](C)(OC)[C@](O)(CN3CCCCC3)[C@H](C)O2)[C@H](C)[C@@H](O[C@@H]2O[C@H](C)C[C@H](N(C)S(=O)(=O)c3nccn3C)[C@H]2Oc2ccnc(F)c2)[C@](C)(O)C[C@@H](C)CN[C@H](C)[C@@H](O)[C@]1(C)O [Example C-49]	6 µM
5 µM	27 µM	CCCNC[C@]1(O)[C@H](C)O[C@@H](O[C@H]2[C@H](C)[C@@H](O[C@@H]3O[C@H](C)C[C@H]4[C@H]3OS(=O)(=O)N4C)[C@](C)(O)C[C@@H](C)CN[C@H](C)[C@@H](O)[C@](C)(O)[C@@H](CC)OC(=O)[C@@H]2C)C[C@@]1(C)OC [Example D-1]	16 µM
5 µM	10 µM	CCCNC[C@]1(O)[C@H](C)O[C@@H](O[C@H]2[C@H](C)[C@@H](O[C@@H]3O[C@H](C)C[C@H](N(C)S(=O)(=O)c4ccc(F)cc4)[C@H]3Oc3ccc(F)cc3)[C@](C)(O)C[C@@H](C)CN[C@H](C)[C@@H](O)[C@](C)(O)[C@@H](CC)OC(=O)[C@@H]2C)C[C@@]1(C)OC [Example B-108]	6 µM
13 µM	8 µM	CCCNC[C@]1(O)[C@H](C)O[C@@H](O[C@H]2[C@H](C)[C@@H](O[C@@H]3O[C@H](C)C[C@H](N(C)S(=O)(=O)N4CCc5ccccc5C4)[C@H]3O)[C@](C)(O)C[C@@H](C)CN[C@H](C)[C@@H](O)[C@](C)(O)[C@@H](CC)OC(=O)[C@@H]2C)C[C@@]1(C)OC [Example B-42]	2 µM
7 µM	5 µM	CCCNC[C@]1(O)[C@H](C)O[C@@H](O[C@H]2[C@H](C)[C@@H](O[C@@H]3O[C@H](C)C[C@H](N(Cc4ccc(OC)cc4)S(=O)(=O)c4ccc(OC)cc4)[C@H]3O)[C@](C)(O)C[C@@H](C)CN[C@H](C)[C@@H](O)[C@](C)(O)[C@@H](CC)OC(=O)[C@@H]2C)C[C@@]1(C)OC [Example B-147]	1 µM
